The data set in a line: Human HepG2 cell viability assay in 384 well format. It counts as toxicity, cell-based. On the set-up: dose 125 nL, time 70.5 hour; cytotoxicity at 70.5 h: concentration not given beside the values. To be noted: HepG2 cells, read-out: Inhibition.

For the compound `CCOCCNC(=O)c1cc(Br)c2c(c1)OCCO2`, the cytotoxicity at 70.5 h was -10.7%. Regarding `Cc1ccc(N2CCCC(N(C)Cc3nnc(C4CC4)o3)C2)nn1` (configuration not stated), the cytotoxicity at 70.5 h is -5.49%.

As for `Cc1ccc(N2CCCC(N(C)Cc3c(C)noc3C)C2)nn1` (configuration not stated), the cytotoxicity at 70.5 h came out at 25.3%. With `C=C(C)Cn1nnc(C2(NC(=O)c3ccccc3)CCCC2)n1` the figure was -8.81%; with `COCCCn1nnc(C2(NC(=O)c3ccccc3)CCCC2)n1`, -12.2%; with `COCc1nc2n(n1)CCCC2Nc1nc(C(C)C)ns1` (configuration not stated), -6.22%. With `O=C(NC1(c2nnn(CC3CCCO3)n2)CCCC1)c1ccccc1` (configuration not stated) the figure was -4.54%; with `O=C(NC1(c2nnn(CC3CC3)n2)CCCC1)c1ccccc1`, -7.63%. On to `CC(C)Sc1nnnn1C1CCCC1`, for which the cytotoxicity at 70.5 h is -9.93%. `CCCOC(=O)C(C)Sc1nnnn1C1CCOCC1` (configuration not stated): the cytotoxicity at 70.5 h is -2.83%. Regarding `Cc1ccc(N2CCCC(N(C)Cc3ccccn3)C2)nn1` (configuration not stated), the cytotoxicity at 70.5 h was -10.3%.

In the case of `CS(=O)(=O)NCCC(=O)N1CCCC1c1noc(C2CC2)n1` (configuration not stated), the cytotoxicity at 70.5 h is -11.1%. Under `Cc1cc(NC(=O)C2CN(Cc3ccccc3)CCO2)ccn1` (configuration not stated) stands 13%. Turning to `NC(=O)C1CCCN1Cc1cccc(NC(=O)c2cc(Cl)cc(Cl)c2)c1` (configuration not stated), the cytotoxicity at 70.5 h was -15.9%. As for `Cc1cc(S(=O)(=O)N2CCCc3cc(F)c(F)cc32)sc1C(=O)O`, the cytotoxicity at 70.5 h is -1.45%. In the case of `Cc1cc(S(=O)(=O)N2CCCc3ccccc32)sc1C(=O)O`, the cytotoxicity at 70.5 h was -12.2%.

With `CC(C)NC(=O)CCN1CCCC1c1cccc2c1OCCO2` (configuration not stated), the cytotoxicity at 70.5 h was -8.96%.

Regarding `COc1ccc(-n2cnnc2SCC(=O)N(C)C(C)C)cn1`, the cytotoxicity at 70.5 h is -6.69%.

In the case of `CCc1nc(CCNC(=O)Nc2ccc(C(=O)NC)cc2)cs1`, the cytotoxicity at 70.5 h was -1.4%.

Turning to `Cc1cccc(NC(=O)[C@@H]2CCCN2CC(=O)Nc2ccccc2)n1`, the cytotoxicity at 70.5 h is -6.38%. Under `CCCS(=O)(=O)N1CCC(NC(=O)c2cc3ccccc3s2)CC1` stands -6.56%; under `NS(=O)(=O)N1CCC(C(=O)Nc2cccc(OC(F)F)c2)CC1`, 1.39%. Turning to `NC(=O)C(NC(=O)Cc1cnn(-c2ccccc2)n1)c1ccccc1` (configuration not stated), the cytotoxicity at 70.5 h was -0.915%. Under `CCC(=O)NCC(=O)NCC1(c2c(F)cccc2F)CCCC1` stands -4.06%. Regarding `CC(=O)N(C)CC(=O)NCC1(c2c(F)cccc2F)CCCC1`, the cytotoxicity at 70.5 h amounted to 0.534%.

On to `O=C(Nc1nnc(N2CCCCC2)[nH]1)c1cccs1`, for which the cytotoxicity at 70.5 h is -0.727%. Take `Cc1occc1CNC(=O)C1(C)CCCN1C(=O)c1ccccc1` (configuration not stated): the cytotoxicity at 70.5 h turned out to be 2.74%. Take `CCCNC(=O)CCNC(=O)N1CCc2c(F)ccc(F)c2C1`: the cytotoxicity at 70.5 h came out at 3.2%. Turning to `O=C(Cc1cnn(-c2ccccc2)n1)NC(C1CC1)C1CC1`, the cytotoxicity at 70.5 h came to 0.511%. In the case of `COC(=O)CCCNC(=O)N1CCc2c(F)ccc(F)c2C1`, the cytotoxicity at 70.5 h was -1.47%. For `CCn1cc(CNc2ccc(F)c(N3CCCS3(=O)=O)c2)cn1`, the cytotoxicity at 70.5 h was 0.531%. Under `Cc1occc1CNC(=O)C1(C)CCCN(C(=O)c2ccccc2)C1` (configuration not stated) stands 0.298%. Turning to `Cc1cc(=O)n(C)cc1NC(=O)Cc1cccc(F)c1`, the cytotoxicity at 70.5 h is -2.92%. Take `CC(NCC1CCN(CCO)CC1)c1ccc(C(F)(F)F)cc1` (configuration not stated): the cytotoxicity at 70.5 h came out at 14%.

Regarding `CC(C)(C)CCCC(=O)NS(=O)(=O)CC1CC1`, the cytotoxicity at 70.5 h was -0.428%. Consider `CC(C)(CO)CCCNC(=O)N1CCc2c(F)ccc(F)c2C1`, for which the cytotoxicity at 70.5 h was -2.98%. With `CC(C)c1ocnc1C(=O)N1CCCC(c2ccn[nH]2)C1` (configuration not stated), the cytotoxicity at 70.5 h was -3.87%. With `Cc1nc2n(n1)CC(NCC(=O)NCC1(c3ccccc3)CC1)CC2` (configuration not stated) the figure was -3.45%. Turning to `Cn1ccnc1CNc1ccc(F)c(N2CCCS2(=O)=O)c1`, the cytotoxicity at 70.5 h turned out to be 0.314%. For `OC(CN(Cc1ccccc1)Cc1ccncc1)c1ccco1` (configuration not stated), the cytotoxicity at 70.5 h was found to be 26%.

In the case of `OC[C@@H](O)CN(CCC(F)(F)F)c1ncccn1`, the cytotoxicity at 70.5 h was 5.67%.

`OC(CN(Cc1ccccc1)Cc1ccon1)c1ccco1` (configuration not stated): the cytotoxicity at 70.5 h is -7.07%.

On to `CCCN1CCCN(CCCOc2cccc(C#N)c2)CC1`, for which the cytotoxicity at 70.5 h is -1.9%.

On to `CCn1c(CN(C)C(=O)c2ccc(N(C)C)nc2)nc2ccccc21`, for which the cytotoxicity at 70.5 h was -14%.

As for `CC(C)(C)C(=O)N1CCN(CCOc2cccc(C#N)c2)CC1`, the cytotoxicity at 70.5 h is -5.91%. For the compound `CCn1c(CNC(=O)c2ccc(N(C)C)nc2)nc2ccccc21`, the cytotoxicity at 70.5 h is -8.62%. As to `Cc1cc(C)c2c(c1)C(NC(=O)CSc1nnc[nH]1)CCO2` (configuration not stated), the cytotoxicity at 70.5 h turned out to be 10.8%. For the compound `CN(Cc1cccs1)c1nc2c(cnn2C(C)(C)C)c(=O)[nH]1`, the cytotoxicity at 70.5 h is -6.5%.

As to `Cc1nc(-c2ccsc2)sc1C(=O)N1CCn2c(C)nnc2C1`, the cytotoxicity at 70.5 h was -0.696%.

Consider `CCC(Nc1ccc(Oc2ccccc2OC)cc1)C(N)=O` (configuration not stated), for which the cytotoxicity at 70.5 h was -4.77%. Under `CCC(Nc1cccc(Oc2ccc(C#N)cc2)c1)C(N)=O` (configuration not stated) stands -4.69%; under `Cc1nc(CN(C)c2nc3c(cnn3C(C)(C)C)c(=O)[nH]2)cs1`, 8.98%. With `Cc1cccc(S(=O)(=O)NC(=O)c2ccc3c(c2)nnn3C)c1` the figure was -5.75%; with `CC1(C(=O)Nc2ccc(F)c(-n3cccc3)c2)CCOCC1`, -6.66%.

Consider `Cc1cc(C(=O)NC2CCN(C(=O)Nc3cccnc3)CC2)c(C)o1`, for which the cytotoxicity at 70.5 h is -9.09%. Take `Cc1cnc(C(C)(C)NC(=O)NCc2cccnc2OC(C)C)s1`: the cytotoxicity at 70.5 h turned out to be 2.79%.

With `CN(C(=O)CNc1ccc(C#N)cc1)C1CCCCC1`, the cytotoxicity at 70.5 h is -3.87%. Regarding `Cc1cc(C(=O)N(C)CC(F)(F)C(F)(F)F)ccc1-n1cncn1`, the cytotoxicity at 70.5 h was found to be 2.03%. For the compound `Cc1nnc(CN(C)CCOc2cccc(Cl)c2)o1`, the cytotoxicity at 70.5 h was -10.9%. With `COc1ccc(C)cc1CN(Cc1nc(C)c(C)o1)C1CCN(C)C1` (configuration not stated) the figure was 3.17%; with `CCn1c(CN(C)C(=O)c2ccc(O)nc2)nc2ccccc21`, -5.75%; with `COCCN(Cc1cnn(C)c1)Cc1ccc(C)o1`, -9.85%. On to `Cc1nnc(CN(C)CCCOc2cccc(Cl)c2)o1`, for which the cytotoxicity at 70.5 h is 0.527%.

With `CS(=O)(=O)NC1CCN(C(=O)COCc2ccccc2)CC1`, the cytotoxicity at 70.5 h was 18.3%. `CC(C)(C)Cc1noc2ncc(C(=O)N3CCSCC3)cc12`: the cytotoxicity at 70.5 h was -7.45%. With `O=C(CCS(=O)(=O)C1CCCC1)NCCc1cccc(O)c1`, the cytotoxicity at 70.5 h is 19.9%. With `CC1CN(C)CCN1C(=O)c1cnc2onc(CC(C)(C)C)c2c1` (configuration not stated), the cytotoxicity at 70.5 h was -8.98%. With `CC(C)(C)C(O)CN1CCN(Cc2nccn2CC(F)(F)F)CC1` (configuration not stated), the cytotoxicity at 70.5 h was 17.5%. Take `CCc1nnc2n1CCN(C(=O)c1cnc(-c3cccs3)s1)C2`: the cytotoxicity at 70.5 h is -7.22%. For the compound `CC(O)C1CCN(Cc2nccn2CC(F)(F)F)CC1` (configuration not stated), the cytotoxicity at 70.5 h was -7.97%. For the compound `CN(C)C(CNC(=O)c1ncoc1-c1ccccc1)c1ccsc1` (configuration not stated), the cytotoxicity at 70.5 h is -11.1%. For the compound `COC(=O)C(C)(C)C(C)(C)NC(=O)Nc1nnc(-c2ccccn2)s1`, the cytotoxicity at 70.5 h was -10.6%. Under `Cc1cccc(C2CCCN2C(=O)CCS(C)(=O)=O)c1C` (configuration not stated) stands 18.6%. For the compound `CCCS(=O)(=O)NC(=O)c1sc(C2CCCC2)nc1C`, the cytotoxicity at 70.5 h was -3.78%. In the case of `Nc1c(Cl)cnn1C1CCN(Cc2ccccc2)C1` (configuration not stated), the cytotoxicity at 70.5 h is -3.84%.

As to `CNS(=O)(=O)CC(=O)N(Cc1c(F)cccc1Cl)C1CC1`, the cytotoxicity at 70.5 h was -7.68%.

As for `COCc1noc(-c2nn(-c3ccccc3F)c3c2CCC3)n1`, the cytotoxicity at 70.5 h was -6.39%. On to `CS(=O)(=O)CCCSCc1ccc(Br)c(F)c1`, for which the cytotoxicity at 70.5 h was -1.93%. As to `CNC(=O)c1sc(C2CCCC2)nc1C`, the cytotoxicity at 70.5 h was -5.12%. With `O=C(NCc1ccco1)Nc1ccc2nc(N3CCOCC3)oc2c1` the figure was -2.89%; with `CC(C)(C)Cc1noc2ncc(C(=O)N3CCC3)cc12`, -6.81%; with `Cc1cc(NC(=O)N(Cc2ccc(C#N)cc2)C(C)C)no1`, -13.2%. Under `CCSc1ccc(C(C)NC(=O)CNS(C)(=O)=O)cc1` (configuration not stated) stands -7.13%; under `O=C1CCCN1CC1CCCCN1C(=O)Nc1cccc(F)c1` (configuration not stated), -14.6%. Take `CC(=O)c1cccc(NC(=O)N2CCCCC2CN2CCCC2=O)c1` (configuration not stated): the cytotoxicity at 70.5 h was -7.82%. In the case of `[O-][S+](CCN1CCc2[nH]nc(C(F)(F)F)c2C1)c1ccccc1` (configuration not stated), the cytotoxicity at 70.5 h is -6.21%. For `CN(C)c1cc2c(nn1)CCN(C(=O)c1cc3ccccc3o1)C2`, the cytotoxicity at 70.5 h is -11.3%. Take `CCNc1cc2c(nn1)CCN(C(=O)c1cc3ccccc3[nH]c1=O)C2`: the cytotoxicity at 70.5 h was -12.3%.

Take `CCC(=O)Nc1cc(Br)cnc1OCC(F)(F)F`: the cytotoxicity at 70.5 h is -8.98%. Consider `CCOc1cc(F)ccc1NC(=O)NCC(c1cnn(C)c1)N(C)C` (configuration not stated), for which the cytotoxicity at 70.5 h was -0.683%.

For `CCOCc1ccccc1NC(=O)NCC(c1cnn(C)c1)N(C)C` (configuration not stated), the cytotoxicity at 70.5 h is -5.82%.

For the compound `Cn1c(C(=O)NS(C)(=O)=O)ccc1-c1ccccc1`, the cytotoxicity at 70.5 h was -6.29%. Take `Cc1ccc(C(NC(=O)Cc2nc3ncccn3n2)C2CC2)cc1` (configuration not stated): the cytotoxicity at 70.5 h is -11.9%. For the compound `CNC(=O)c1ccc(-c2ccccc2)n1C`, the cytotoxicity at 70.5 h is -9.17%. On to `Cc1nc(NC(=O)OC(C)(C)C)sc1C(N)=O`, for which the cytotoxicity at 70.5 h was -2.34%.

Take `CCN(CC)C(C(=O)Nc1ccc2c(c1)CCC(=O)N2)c1ccccc1` (configuration not stated): the cytotoxicity at 70.5 h was -11.2%. Consider `c1ccc(CSc2nnc(C3CC3)s2)nc1`, for which the cytotoxicity at 70.5 h was -7.57%. Under `CCCN(CCC)S(=O)(=O)N(C)Cc1ccncc1` stands -12.4%; under `COCCN(CCOC)S(=O)(=O)N(C)Cc1ccncc1`, 19.1%; under `CC/C=C(/C)C(=O)NCc1ccnc(OC)c1`, -8.93%. For the compound `CC(C)N(C)CCNC(=O)N(C)CC1CCOCC1`, the cytotoxicity at 70.5 h is -11.2%. Take `COc1ccc(C(C)NCc2ccc(OC)c(OC)c2OC)cc1F` (configuration not stated): the cytotoxicity at 70.5 h worked out at 31.6%.
